Values after ≈ are worked out from the molar mass of the structure shown. Where two headings read alike, the source gives them in different places.
How the values were obtained:
S. Typhimurium (isolate) = assay: Microdilution with resazurin, antibacterial; format: cell-based, Salmonella Typhimurium
Protocol: (§1) The tested methanol, acetone, and n-hexane extracts, as well as the component (usnic acid) of X. stenophylla, were dissolved in 10% dimethyl sulfoxide (DMSO) and then diluted into the nutrient liquid medium. DMSO was obtained from Acros Organics (Fair Lawn, NJ, USA). Resazurin was obtained from Alfa Aesar GmbH & Co. (KG, Karlsruhe, Germany).
(§2) The antimicrobial activity of the extracts and components was tested against 19 microorganisms. The experiment involved 15 strains of bacteria (i.e., 6 standard strains: Staphylococcus aureus ATCC 6538, Bacillus subtilis ATCC 6633, Proteus mirabilis ATCC 12453, Pseudomonas aeruginosa ATCC 27853, Klebsiella pneumoniae ATCC 70063, and Escherichia coli ATCC 25922; 9 isolates: Staphylococcus aureus, Escherichia coli, Salmonella enterica, Salmonella Typhimurium, Proteus mirabilis, Klebsiella pneumoniae, Pseudomonas aeruginosa, Bacillus subtilis, and Bacillus cereus). In addition, four fungal strains (i.e., two standard strains: Candida albicans ATCC 10231 and Aspergillus niger ATCC 16888; two isolates: Saccharomyces cerevisiae and Candida albicans) were tested. All isolates were a generous gift from the Institute of Public Health, Kragujevac. The other microorganisms were provided from the collection held by the Microbiology Laboratory Faculty of Science, University of Kragujevac.
(§3) The bacterial suspensions were prepared by the direct colony method. The turbidity of the initial suspension was adjusted using a densitometer (DEN-1, BioSan, Riga, Latvia). When adjusted to the turbidity of the 0.5 McFarland’s standard (Andrews, 2005) the bacteria suspension contained approximately 10^8 colony-forming units (CFU)/mL, and the suspension of yeast contained 10^6 CFU/mL; 1:100 dilutions of the initial suspension were additionally prepared in sterile 0.85% saline. The suspensions of fungal spores were prepared by gentle stripping of spores from slopes with growing mycelia. The resulting suspensions were 1:1000 diluted in sterile 0.85% saline.
(§4) Antimicrobial activity was tested by determining the minimum inhibitory concentrations (MICs) and minimum microbicidal concentrations (MBCs) using the microdilution plate method with resazurin [56]. The 96-well plates were prepared by dispensing 100 μL of Mueller–Hinton broth for bacteria and Sabouard broth for fungi into each well. A 10 μL aliquot from the stock solution of the tested extract or component was added to the first row of the plate. Then, two-fold serial dilutions were performed using a multichannel pipette. The obtained concentration range was from 10 to 0.08 mg/mL. The method is described in detail in [76].
(§5) Each test included growth control and sterility control.
(§6) Minimum microbicidal concentrations were determined by plating 10 μL of samples from wells where no indicator color change or no mycelia growth was recorded on a nutrient agar medium. At the end of the incubation period, the lowest concentration with no growth (no colony) was defined as the minimum microbicidal concentration.

P. mirabilis (isolate) = assay: Microdilution with resazurin, antibacterial; format: cell-based, Proteus mirabilis
Protocol: as §1, §2, §3, §4, §5, §6

P. mirabilis ATCC 12453 = assay: Microdilution with resazurin, antibacterial; format: cell-based, Proteus mirabilis
Protocol: as §1, §2, §3, §4, §5, §6

K. pneumoniae (isolate) = assay: Microdilution with resazurin, antibacterial; format: cell-based, Klebsiella pneumoniae
Protocol: as §1, §2, §3, §4, §5, §6

K. pneumoniae ATCC 70063 = assay: Microdilution with resazurin, antibacterial; format: cell-based, Klebsiella pneumoniae
Protocol: as §1, §2, §3, §4, §5, §6

P. aeruginosa (isolate) = assay: Microdilution with resazurin, antibacterial; format: cell-based, Pseudomonas aeruginosa
Protocol: as §1, §2, §3, §4, §5, §6

P. aeruginosa ATCC 27853 = assay: Microdilution with resazurin, antibacterial; format: cell-based, Pseudomonas aeruginosa
Protocol: as §1, §2, §3, §4, §5, §6

B. cereus (isolate) = assay: Microdilution with resazurin, antibacterial; format: cell-based, Bacillus cereus
Protocol: as §1, §2, §3, §4, §5, §6

S. aureus (isolate) = assay: Microdilution with resazurin, antibacterial; format: cell-based, Staphylococcus aureus
Protocol: as §1, §2, §3, §4, §5, §6

S. aureus ATCC 6538 = assay: Microdilution with resazurin, antibacterial; format: cell-based, Staphylococcus aureus
Protocol: as §1, §2, §3, §4, §5, §6

P. aeruginosa biofilm = assay: Antibiofilm activity (biofilm formation, crystal violet); format: cell-based, Pseudomonas aeruginosa; conditions: P. aeruginosa, 37 °C, 48 h
Protocol: (§7) The ability of S. aureus ATCC 6538 and P. aeruginosa to form biofilms was assayed as described by O’Toole et al. with some modifications. Briefly, the tissue culture of 96-well microtiter plates (Sarstedt, Germany) were prepared by dispensing 100 µL of nutrient broth (i.e., Mueller–Hinton broth) into each well. Ten microliters of spore suspension (10^8 colony-forming units (CFU)/mL) was added into each row. […] Biofilms formed by adherent cells in 96-well microtiter plates were stained with crystal violet (0.1% w/v; Fluka AG, Buchs, Switzerland) and incubated at room temperature for 20 min. Excess stain was rinsed off by thorough washing with deionized water and then with […] of 96% ethanol. Optical densities (ODs) of stained adherent bacteria were determined with an enzyme-linked immunosorbent assay (ELISA) plate reader (RT-2100C, Rayto, Shenzhen, China) at a 630 nm wavelength. Only broth served as a control to check sterility and nonspecific binding of media. To compensate for background absorbance, OD readings from sterile medium, fixative, and dye were averaged and subtracted from all test values. All tests were performed in duplicate. The tissue culture of 96-well microtiter plates (Sarstedt, Nümbrecht, Germany) were prepared by dispensing 100 µL of nutrient broth (i.e., Mueller–Hinton broth) into each well. From the stock solution of the tested extracts or components (concentration: 20 mg/mL), 100 µL was added to the first row of the microtiter plate. Two-fold serial dilutions were then made using a multichannel pipette, following which 10 µL of fresh bacterial suspension was added to each well. The inoculated microtiter plates were incubated at 37 °C for 48 h. After incubation, the content of each well was gently removed by tapping the microtiter plates. […] Biofilms formed by adherent cells in 96-well microtiter plates were stained with crystal violet (0.1% w/v; Fluka AG, Switzerland) and incubated at room temperature for 20 min. Excess stain was rinsed off by thorough washing with deionized water and then with […] densities (ODs) of stained adherent bacteria were determined with an enzyme-linked immunosorbent assay (ELISA) plate reader at a 630 nm wavelength. […] Only broth or broth with extracts served as a control to check the sterility and nonspecific binding of media. To compensate for background absorbance, OD readings from sterile medium, extracts, fixative, and dye were averaged and subtracted from all test values. All tests were performed in duplicate.

[1] = tested on: S. aureus ATCC 6538 biofilm; assay: as above; format: cell-based, Staphylococcus aureus; conditions: S. aureus ATCC 6538, 37 °C, 48 h
Protocol: as §7

usnic acid was tested, and the MBC (S. Typhimurium (isolate); extracts and usnic acid) was under 10000 µg/mL, the MIC (S. Typhimurium (isolate); extracts and usnic acid) was under 10000 µg/mL and the MBC (P. mirabilis (isolate); extracts and usnic acid) was under 10000 µg/mL. The MIC (P. mirabilis (isolate); extracts and usnic acid) was under 10000 µg/mL, the MBC (P. mirabilis ATCC 12453; extracts and usnic acid) was under 10000 µg/mL and the MIC (P. mirabilis ATCC 12453; extracts and usnic acid) was under 10000 µg/mL. For the same molecule, the MBC (K. pneumoniae (isolate); extracts and usnic acid) was under 10000 µg/mL, the MIC (K. pneumoniae (isolate); extracts and usnic acid) was under 10000 µg/mL and the MBC (K. pneumoniae ATCC 70063; extracts and usnic acid) was under 10000 µg/mL. It also gave an MIC (K. pneumoniae ATCC 70063; extracts and usnic acid) of under 10000 µg/mL, an MBC (P. aeruginosa (isolate); extracts and usnic acid) of under 10000 µg/mL and an MIC (P. aeruginosa (isolate); extracts and usnic acid) of 10000 µg/mL. It also gave an MBC (P. aeruginosa ATCC 27853; extracts and usnic acid) of under 10000 µg/mL, an MIC (P. aeruginosa ATCC 27853; extracts and usnic acid) of 10000 µg/mL and an MBC (B. cereus (isolate); extracts and usnic acid) of under 80 µg/mL. It also gave an MIC (B. cereus (isolate); extracts and usnic acid) of under 80 µg/mL, an MBC (S. aureus (isolate); extracts and usnic acid) of 156 µg/mL and an MIC (S. aureus (isolate); extracts and usnic acid) of 156 µg/mL. For the same molecule, the MBC (S. aureus ATCC 6538; extracts and usnic acid) was 625 µg/mL, the MIC (S. aureus ATCC 6538; extracts and usnic acid) was 312.5 µg/mL and the “BIC50 (biofilm inhibitory concentration, 50% reduction of biofilm coverage)” value (P. aeruginosa biofilm) was > 10,000 µg/mL. For the same molecule, the “BIC90 (biofilm inhibitory concentration, 90% reduction of biofilm coverage)” value (P. aeruginosa biofilm) was > 10,000 µg/mL, the “BIC50 (biofilm inhibitory concentration, 50% reduction of biofilm coverage)” value (P. aeruginosa biofilm; listed as UA) was <10,000 µg/mL and the “BIC90 (biofilm inhibitory concentration, 90% reduction of biofilm coverage)” value (P. aeruginosa biofilm; listed as UA) was <10,000 µg/mL. The “BIC50 (biofilm inhibitory concentration, 50% reduction of biofilm coverage)” value [1] was 1750 µg/mL and the “BIC90 (biofilm inhibitory concentration, 90% reduction of biofilm coverage)” value [1] was 5000 µg/mL.

For `CN(C)[C@@H]1C(O)=C(C(N)=O)C(=O)[C@@]2(O)C(O)=C3C(=O)c4c(O)cccc4[C@@](C)(O)[C@H]3C[C@@H]12` [TC, tetracycline], the MBC (S. Typhimurium (isolate); Salmonella enterica, antibiotics, read-out: MBC) was 2 µg/mL (≈ 4.5 µM), the MBC (P. mirabilis (isolate); Proteus mirabilis, antibiotics, read-out: MBC) was over 128 µg/mL and the MIC (P. mirabilis (isolate); Proteus mirabilis, antibiotics, read-out: MIC) was over 128 µg/mL. It also gave an MBC (P. mirabilis ATCC 12453; Proteus mirabilis, ATCC12453, antibiotics, read-out: MBC) of 4 µg/mL (≈ 9 µM), an MIC (P. mirabilis ATCC 12453; Proteus mirabilis, ATCC12453, antibiotics, read-out: MIC) of 2 µg/mL (≈ 4.5 µM) and an MBC (K. pneumoniae (isolate); Klebsiella pneumoniae, antibiotics, read-out: MBC) of 32 µg/mL (≈ 72 µM). It also gave an MIC (K. pneumoniae (isolate); Klebsiella pneumoniae, antibiotics, read-out: MIC) of 4 µg/mL (≈ 9 µM), an MBC (K. pneumoniae ATCC 70063; Klebsiella pneumoniae, ATCC70063, antibiotics, read-out: MBC) of 64 µg/mL (≈ 144 µM) and an MIC (K. pneumoniae ATCC 70063; Klebsiella pneumoniae, ATCC70063, antibiotics, read-out: MIC) of 4 µg/mL (≈ 9 µM). It also gave an MBC (P. aeruginosa (isolate); Pseudomonas aeruginosa, antibiotics, read-out: MBC) of over 128 µg/mL, an MIC (P. aeruginosa (isolate); Pseudomonas aeruginosa, antibiotics, read-out: MIC) of over 128 µg/mL and an MBC (P. aeruginosa ATCC 27853; Pseudomonas aeruginosa, ATCC27853, antibiotics, read-out: MBC) of 32 µg/mL (≈ 72 µM). The MIC (P. aeruginosa ATCC 27853; Pseudomonas aeruginosa, ATCC27853, antibiotics, read-out: MIC) was 4 µg/mL (≈ 9 µM), the MBC (B. cereus (isolate); Bacillus cereus, antibiotics, read-out: MBC) was 0.5 µg/mL (≈ 1.13 µM) and the MIC (B. cereus (isolate); Bacillus cereus, antibiotics, read-out: MIC) was 0.25 µg/mL (≈ 0.563 µM). The MBC (S. aureus (isolate); Staphylococcus aureus, antibiotics, read-out: MBC) was under 0.06 µg/mL, the MIC (S. aureus (isolate); Staphylococcus aureus, antibiotics, read-out: MIC) was under 0.06 µg/mL and the MBC (S. aureus ATCC 6538; Staphylococcus aureus, ATCC6538, antibiotics, read-out: MBC) was 6 µg/mL (≈ 13.5 µM). The MIC (S. aureus ATCC 6538; Staphylococcus aureus, ATCC6538, antibiotics, read-out: MIC) was 3 µg/mL (≈ 6.75 µM), the “BIC90 (biofilm inhibitory concentration, 90% reduction of biofilm coverage)” value (P. aeruginosa biofilm) was over 1000 µg/mL and the IC50 (P. aeruginosa biofilm; Pseudomonas aeruginosa, read-out: BIC50 (biofilm inhibitory concentration, 50% reduction of biofilm coverage)) was over 1000 µg/mL. For the same molecule, the “BIC90 (biofilm inhibitory concentration, 90% reduction of biofilm coverage)” value [1] was over 1000 µg/mL and the IC50 ([1]; Staphylococcus aureus, ATCC6538, read-out: BIC50 (biofilm inhibitory concentration, 50% reduction of biofilm coverage)) was 249 µg/mL (≈ 560 µM).
